Test results: PubChem BioAssay (NCI)
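Dose response: 5 concentrations. Exposure: 48 h. Format: 96-well plates. Endpoint: linear interpolation; highest concentration if not reached. At the GI50, growth is halved. TGI is the concentration that stops growth completely.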

Key:
Test in all cases: inhibition of tumour cell growth, NCI panel, 48 h
[1] = test system: SW-620 colon
[2] = test system: K-562 leukemia
[3] = test system: NCI-H460 lung
[4] = test system: MOLT-4 leukemia
[5] = test system: U251 CNS
[6] = test system: IGROV1 ovarian
[7] = test system: HS 578T breast
[8] = test system: OVCAR-4 ovarian
[9] = test system: SK-OV-3 ovarian
[10] = test system: SF-268 CNS
[11] = test system: HCT-116 colon
[12] = test system: EKVX NSCLC
[13] = test system: 786-0 renal
[14] = test system: MCF7 breast
[15] = test system: COLO 205 colon
[16] = test system: SN12C renal
[17] = test system: UO-31 renal
[18] = test system: DU-145 prostate
[19] = test system: OVCAR-5 ovarian
[20] = test system: SK-MEL-28 melanoma
[21] = test system: CAKI-1 renal
[22] = test system: T-47D breast
[23] = test system: SNB-19 CNS
[24] = test system: SF-539 CNS
[25] = test system: SK-MEL-5 melanoma
[26] = test system: UACC-62 melanoma
[27] = test system: MDA-MB-231 breast
[28] = test system: NCI-H226 lung
[29] = test system: HOP-62 NSCLC
[30] = test system: A498 renal
[31] = test system: OVCAR-3 ovarian
[32] = test system: SF-295 CNS
[33] = test system: M14 melanoma
[34] = test system: RPMI-8226 leukemia
[35] = test system: HCT-15 colon
[36] = test system: A549 NSCLC
[37] = test system: KM12 colon
[38] = test system: MALME-3M melanoma
[39] = test system: NCI-H522 lung
[40] = test system: SK-MEL-2 melanoma
[41] = test system: MDA-MB-435
[42] = test system: HL-60(TB) leukemia
[43] = test system: UACC-257 melanoma
[44] = test system: NCI/ADR-RES ovarian
[45] = test system: PC-3 prostate
[46] = test system: HT29 colon
[47] = test system: RXF 393 renal
[48] = test system: ACHN renal
[49] = test system: SR leukemia
[50] = test system: BT-549 breast
[51] = test system: LOX IMVI melanoma
[52] = test system: CCRF-CEM leukemia
[53] = test system: HCC-2998 colon
[54] = test system: TK-10 renal
[55] = test system: OVCAR-8 ovarian
[56] = test system: SNB-75 CNS
[57] = test system: HOP-92 NSCLC
[58] = test system: NCI-H23 lung

## O=C1CC(c2c[nH]c3ccc(F)cc23)C(=O)N1 (stereo unspecified)
[1]
  GI50: > 100 µM
  TGI: > 100 µM
[2]
  GI50: > 100 µM
  TGI: > 100 µM
[3]
  GI50: > 100 µM
  TGI: > 100 µM
[4]
  GI50: > 100 µM
  TGI: > 100 µM
[5]
  GI50: > 100 µM
  TGI: > 100 µM
[6]
  GI50: > 100 µM
  TGI: > 100 µM
[7]
  GI50: > 100 µM
  TGI: > 100 µM
[8]
  GI50: > 100 µM
  TGI: > 100 µM
[9]
  GI50: > 100 µM
  TGI: > 100 µM
[10]
  GI50: > 100 µM
  TGI: > 100 µM
[11]
  GI50: > 100 µM
  TGI: > 100 µM
[12]
  GI50: > 100 µM
  TGI: > 100 µM
[13]
  GI50: > 100 µM
  TGI: > 100 µM
[14]
  GI50: > 100 µM
  TGI: > 100 µM
[15]
  GI50: > 100 µM
  TGI: > 100 µM
[16]
  GI50: > 100 µM
  TGI: > 100 µM
[17]
  GI50: > 100 µM
  TGI: > 100 µM
[18]
  GI50: > 100 µM
  TGI: > 100 µM
[19]
  GI50: > 100 µM
  TGI: > 100 µM
[20]
  GI50: > 100 µM
  TGI: > 100 µM
[21]
  GI50: > 100 µM
  TGI: > 100 µM
[22]
  GI50: > 100 µM
  TGI: > 100 µM
[23]
  GI50: > 100 µM
  TGI: > 100 µM
[24]
  GI50: > 100 µM
  TGI: > 100 µM
[25]
  GI50: > 100 µM
  TGI: > 100 µM
[26]
  GI50: > 100 µM
  TGI: > 100 µM
[27]
  GI50: > 100 µM
  TGI: > 100 µM
[28]
  GI50: > 100 µM
  TGI: > 100 µM
[29]
  GI50: > 100 µM
  TGI: > 100 µM
[30]
  GI50: > 100 µM
  TGI: > 100 µM
[31]
  GI50: > 100 µM
  TGI: > 100 µM
[32]
  GI50: > 100 µM
  TGI: > 100 µM
[33]
  GI50: > 100 µM
  TGI: > 100 µM
[34]
  GI50: > 100 µM
  TGI: > 100 µM
[35]
  GI50: > 100 µM
  TGI: > 100 µM
[36]
  GI50: > 100 µM
  TGI: > 100 µM
[37]
  GI50: > 100 µM
  TGI: > 100 µM
[38]
  GI50: > 100 µM
  TGI: > 100 µM
[39]
  GI50: > 100 µM
  TGI: > 100 µM
[40]
  GI50: > 100 µM
  TGI: > 100 µM
[41]
  GI50: > 100 µM
  TGI: > 100 µM
[42]
  GI50: > 100 µM
  TGI: > 100 µM
[43]
  GI50: > 100 µM
  TGI: > 100 µM
[44]
  GI50: > 100 µM
  TGI: > 100 µM
[45]
  GI50: > 100 µM
  TGI: > 100 µM
[46]
  GI50: > 100 µM
  TGI: > 100 µM
[47]
  GI50: > 100 µM
  TGI: > 100 µM
[48]
  GI50: > 100 µM
  TGI: > 100 µM
[49]
  GI50: > 100 µM
  TGI: > 100 µM
[50]
  GI50: > 100 µM
  TGI: > 100 µM
[51]
  GI50: > 100 µM
  TGI: > 100 µM
[52]
  GI50: > 100 µM
  TGI: > 100 µM
[53]
  GI50: > 100 µM
  TGI: > 100 µM
[54]
  GI50: > 100 µM
  TGI: > 100 µM
[55]
  GI50: > 100 µM
  TGI: > 100 µM
[56]
  GI50: > 100 µM
  TGI: > 100 µM
[57]
  GI50: > 100 µM
  TGI: > 100 µM
[58]
  GI50: > 100 µM
  TGI: > 100 µM
